Data as given in patent EP2440179B1, “CHITOSAN OLIGOSACCHARIDE-BASED COMPOSITIONS” (Teslenko, Alexander, priority 2009, dated 2010).

Assays:
[1] = test system: Walker-Carciosarcom; experiment: Photodynamic therapy in tumour-bearing rats: malondialdehyde in tumour homogenate (2-thiobarbituric acid); type: in vivo, Ratten; details: marker of oxidative stress
Excerpt: Der Nachweis der therapeutischen Wirkung von COS-ALA-Addukten erfolgte an insgesamt 60 Ratten mit einem Walker-Carciosarcom (30 Verum- und 30 Kontrolltiere). Die Tumore […] worden, die photodynamische Therapie mit COS-ALA wurde durchgeführt, wenn die Tumoren eine Große von 1 cm^3 erreicht hatten. Zur Behandlung […], Frankfurt/M.) mit monochromatischem […] λ = 634 nm. Die Bestrahlungsdosis betrug 37 J/cm^2, die […]. […] Dazu wurden die Tiere getötet, die Tumore […] und deren Gewicht und […] histologische Untersuchungen wurde Gewebe in 10 %iger Formalinlösung fixiert. Zur Bestimung des oxidativen Stress in den Tumorhomogenisaten diente der Gehalt an Malondialdehyd, der mit Hilfe der 2-Thiobarbitursäure bestimmt wurde.

[2] = test system: Walker-Carciosarcom; experiment: Photodynamic therapy in tumour-bearing rats: histological/cytological examination of tumour necrosis; type: in vivo, Ratten
Excerpt: Der Nachweis der therapeutischen Wirkung von COS-ALA-Addukten erfolgte an insgesamt 60 Ratten mit einem Walker-Carciosarcom (30 Verum- und 30 Kontrolltiere). Die Tumore waren den Tieren implantiert worden, die photodynamische Therapie mit COS-ALA wurde durchgeführt, wenn die Tumoren eine Große von 1 cm^3 erreicht hatten.
Zur Behandlung diente eine Lampe "[sequence]" (Galdena AG, Frankfurt/M.) mit monochromatischem Licht der Wellenlänge λ = 634 nm. Die Bestrahlungsdosis betrug 37 J/cm^2, die mittlere Energie 8,5 W. Die behandelten Gruppen bestanden aus jeweils 6 Tieren, die nach 1, 2, 3, 5, 6 und 24 Stunden sowie 2 Wochen untersucht wurden. Dazu wurden die Tiere getötet, die Tumore exstirpiert und deren Gewicht und Größe gemessen. Für histologische Untersuchungen wurde Gewebe in 10 %iger Formalinlösung fixiert.

[3] = type: in vitro ADME, Schwein; details: mean of 4 treated pig skins, after 2 Stunden Applikation
Method: Schweineohren wurden ohne Hautverletzungen sofort nach der Schlachtung aus einem Schlachthof abgeholt. Die Ohren wurden gründlich mit milder Seife abgewaschen. Unmittelbar danach wurde die subkutane Fettschicht mit dem Skalpell abgetrennt. Die Haut wurde in einem Container bei -20°C für weitere Untersuchungen aufbewahrt. Die Trennung der Epidermis von der Dermis erfolgte vorsichtig nach Erwärmung bei 60°C (1 Minute).
Die Eindringtiefe von COS-Salicylat wurde im Rahmen eines Schälverfahrens an einer Modellhaut bestimmt. Die 10%-ige COS-Salicylat-Lösung wurde auf die Hautoberfläche der Ohren aufgetragen und etwa 1 bis 2 Minuten in die Haut einmassiert. Währenddessen wurden die Ohren bei 35 °C temperiert.
Für die Schälung wurden 15 Tesafilmstreifen (Typ Tesa® Office, Beiersdorf, DE) auf eine Größe von 1,5 cm * 1,5 cm geschnitten und ausgewogen. Die auf dem Schweineohr ausgewählten Untersuchungsfelder von 2 cm * 2 cm wurden nacheinander mit den vorbereiteten Tesafilm-Streifen beklebt und danach abgezogen.
Die Streifen wurden mit Acetonitril bei 60°C im Laufe von 60 Minuten extrahiert. Die Lösungen wurden durch 0,5 µm-Membranen filtriert und mit Hilfe von HPLC analysiert.
Das Shimadzu LC-20A HPLC-System bestand aus einer Spherisorb S5 ODS2-Säule (Waters Co) und UV-Detektor. Mobile Phase war Wasser-Methanol-Acetonitril-Essigsaure. Tabelle 2: Mittelwerte der Wiederfindung aus 4 behandelten Schweinehäuten des COS-Salicylat (aus Beispiel 1) und Salicylsäure in einzelnen Hautschichten nach 2 Stunden Applikation.
Der Gehalt von COS-Salicylat in Epidermis und Dermis wurde mit Hilfe einer Franz-Zelle bestimmt.

Molecule | Malondialdehyd ([1]; Zeit nach PDT 1 h) | Malondialdehyd ([1]; Zeit nach PDT 2 h) | Malondialdehyd ([1]; Zeit nach PDT 3 h) | Malondialdehyd ([1]; Zeit nach PDT 5 h) | Malondialdehyd ([1]; Zeit nach PDT 6 h) | Malondialdehyd ([1]; Zeit nach PDT 24 h) | Nekrose in der Mitte des Tumorgewebes zu sehen nach ([2]; time until necrosis is seen) [Stunden] | Nekrose verbreitet sich auf das ganze Tumorgewebe nach ([2]; time until necrosis of the whole tumour) [Wochen] | Wiederfindung, Verteilung in Dermis [3] | Wiederfindung, Verteilung in Epidermis [3] | Wiederfindung, Verteilung in Hornschicht [3]
5-Aminolävulinsäure [ALA] | 0,25 nmol/mL | 0,42 nmol/mL | 0,47 nmol/mL | 0,55 nmol/mL | 0,61 nmol/mL | 0,75 nmol/mL | 72 | 2 |  |  | 
O=C(O)c1ccccc1O [Salicylsäure] |  |  |  |  |  |  |  |  | 1,0 ± 0,15 µg/cm^2 | 2,1 ± 0,2 µg/cm^2 | 5,3 ± 0,4 µg/cm^2
